# Results as given in patent publication US10544130B2, “Metallo-beta-lactamase inhibitors” (priority 2015, dated 2020).
# Test system: Pseudomonas aeruginosa PAO1 MB9798 (efflux+, IMP-1)
# Conditions: ratio MITC95 PA 9798/MITC95 PA 9799; imipenem at 2 μg/mL
# How it was run: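 Isogenic PAO1 pair (efflux+ MB9798, efflux− MB9799, both IMP-1) tested by microbroth MIC with fixed imipenem and/or ceftazidime, usually at CLSI breakpoint, plus fixed class A/C inhibitor against AmpC. MBL inhibitor titrated; concentration restoring susceptibility recorded and fold difference between strains taken as efflux extent.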
row,SMILES,Efflux ratio
1,"Nc1nc2c(-c3ccc(S(=O)(=O)NC4CC5CNC4C5)c(S(N)(=O)=O)c3-c3nnn[nH]3)cccc2s1 (centres unmarked) [Example 88, 4-(2-aminobenzo[d]thiazol-4-yl)-N^1-(2-azabicyclo[2.2.1]heptan-6-yl)-3-(1H-tetrazol-5-yl)benzene-1,2-disulfonamide]",0.50
2,"Nc1nc2c(-c3ccc(S(=O)(=O)NC4CC5CNC4C5)c(S(N)(=O)=O)c3-c3nnn[nH]3)cccc2s1 (centres unmarked) [Example 89, 4-(2-aminobenzo[d]thiazol-4-yl)-N^1-(2-azabicyclo[2.2.1]heptan-6-yl)-3-(1H-tetrazol-5-yl)benzene-1,2-disulfonamide]",1.00
3,"NCCCNS(=O)(=O)c1ccc(-c2cccc3sc(N)nc23)c(-c2nnn[nH]2)c1S(N)(=O)=O.O=C(O)C(F)(F)F [Example 90, 3-(4-(2-aminobenzo[d]thiazol-4-yl)-2-sulfamoyl-3-(1H-tetrazol-5-yl)phenylsulfonamido) propan-1-aminium 2,2,2-trifluoroacetate]",0.50
4,"Nc1nc2c(-c3ccc(S(=O)(=O)NCC4(F)CNC4)c(S(N)(=O)=O)c3-c3nnn[nH]3)cccc2s1.O=CO [Example 91, 3-(((4-(2-aminobenzo[d]thiazol-4-yl)-2-sulfamoyl-3-(1H-tetrazol-5-yl)phenyl)sulfonamido)methyl)-3-fluoroazetidin-1-ium formate]",1.00
5,"CNCCCN(C)S(=O)(=O)c1ccc(-c2cccc3sc(N)nc23)c(-c2nnn[nH]2)c1S(N)(=O)=O.O=C(O)C(F)(F)F [Example 93, 3-(4-(2-aminobenzo[d]thiazol-4-yl)-N-methyl-2-sulfamoyl-3-(1H-tetrazol-5-yl)phenylsulfonamido)-N-methylpropan-1-aminium 2,2,2-trifluoroacetate]",1.00
6,"NC[C@@H]1CCN(S(=O)(=O)c2ccc(-c3cccc4sc(N)nc34)c(-c3nnn[nH]3)c2S(N)(=O)=O)C1.O=C(O)C(F)(F)F [Example 94, (S)-(1-((4-(2-aminobenzo[d]thiazol-4-yl)-2-sulfamoyl-3-(1H-tetrazol-5-yl)phenyl)sulfonyl)pyrrolidin-3-yl)methanaminium 2,2,2-trifluoroacetate]",1.00
7,"Nc1nc2c(-c3ccc(S(=O)(=O)NC4CCC5OC4CC5N)c(S(N)(=O)=O)c3-c3nnn[nH]3)cccc2s1.O=C(O)C(F)(F)F (centres unmarked) [Example 95, 2-(4-(2-aminobenzo[d]thiazol-4-yl)-2-sulfamoyl-3-(1H-tetrazol-5-yl)phenylsulfonamido)-8-oxabicyclo[3.2.1] octan-6-aminium 2,2,2-trifluoroacetate]",1.00
8,"Nc1nc2c(-c3ccc(S(=O)(=O)NCC4COCCN4)c(S(N)(=O)=O)c3-c3nnn[nH]3)cccc2s1.O=C(O)C(F)(F)F (centres unmarked) [Example 96, 3-((4-(2-aminobenzo[d]thiazol-4-yl)-2-sulfamoyl-3-(1H-tetrazol-5-yl)phenylsulfonamido)methyl)morpholin-4-ium 2,2,2-trifluoroacetate]",1.00
9,"Nc1nc2c(-c3ccc(S(=O)(=O)NC4CN5CCC4CC5)c(S(N)(=O)=O)c3-c3nnn[nH]3)cccc2s1.O=C(O)C(F)(F)F (centres unmarked) [Example 97, 3-(4-(2-aminobenzo[d]thiazol-4-yl)-2-sulfamoyl-3-(1H-tetrazol-5-yl)phenylsulfonamido) quinuclidin-1-ium 2,2,2-trifluoroacetate]",1.00
10,"Nc1nc2c(-c3ccc(S(=O)(=O)N[C@@H](N)c4ccccn4)c(S(N)(=O)=O)c3-c3nnn[nH]3)cccc2s1.O=C(O)C(F)(F)F [Example 99, (R)-(4-(2-aminobenzo[d]thiazol-4-yl)-2-sulfamoyl-3-(1H-tetrazol-5-yl)phenylsulfonamido) (pyridin-2-yl)methanaminium 2,2,2-trifluoroacetate]",8.00
11,"CN(CCc1ccncc1)S(=O)(=O)c1ccc(-c2cccc3sc(N)nc23)c(-c2nnn[nH]2)c1S(N)(=O)=O.O=C(O)C(F)(F)F [Example 100, 4-(2-(4-(2-aminobenzo[d]thiazol-4-yl)-N-methyl-2-sulfamoyl-3-(1H-tetrazol-5-yl)phenylsulfonamido)ethyl)pyridin-1-ium 2,2,2-trifluoroacetate]",32.00
